Assay results taken from US9493474B2, “Inhibitors of the renal outer medullary potassium channel” (Merck Sharp & Dohme Corp., priority 2011, dated 2016).

How the values were obtained:
[1] = target: hROMK (hKir1.1) (Homo sapiens (Human), UniProt P48048); experiment: Thallium Flux Assay; assay type: cell-based; settings: HEK293 cells stably expressing hROMK (hKir1.1); FLIPR-Tetra, 30 min compound incubation
Source text: (§1) Several assays may be used to measure functional inhibition of the ROMK channel by compounds of the instant invention. One assay that can be used is an electrophysiology assay that measures the electrical current that is generated as potassium permeates through the channel. Another ROMK functional assay makes use of the ability of thallium to permeate through open ROMK channels and increase the fluorescence of a dye previously loaded into the cells. Under control conditions, cells loaded with dye and exposed to thallium-containing medium display a time-dependent increase in fluorescence, the rate of which depends on number of functional channels. When cells are incubated in the presence of a channel inhibitor, the increase in fluorescence is attenuated in a concentration-dependent manner, and IC50 values of inhibition by compounds can be accurately determined. This assay has been established with cell lines expressing either human, or rat ROMK channels, and operates in 384-well format.
HEK293 cells stably expressing hROMK (hKir1.1) were grown at 37° C. in a 10% CO2 humidified incubator in complete growth media: Dulbecco's Modified Eagle Medium supplemented with non-essential amino acids, Penicillin/Streptomycin/Glutamine, G418 and FBS. At >80% confluency, the media was aspirated from the flask and the sample was rinsed with 10 ml Calcium/Magnesium-free PBS. […] To dislodge the cell, the side of the flask was gently banged with a hand. The cells were triturated completely and then transferred to 25 ml complete media. The sample was then centrifuged at 1,500 rpm for 6 minutes, followed by resuspension in complete growth media and then cell concentration was determined. […] Under ideal growth conditions and appropriate tissue culture practices, this cell line is stable for 40-45 passages.
• FluxOR™ Reagent (Component A) • FluxOR™ Assay Buffer (Component B)—10× Concentrate • PowerLoad™ Concentrate (Component C)—100× Concentrate • Probenecid (Component D)—Lyophilized sample is kept at −20° C. Water soluble, 100× after solubilization in 1 ml water. […] Store at 4° C. • Thallium sulfate (Tl2SO4) Concentrate (Component G)—50 mM in water. […] Can be stored at room temperature • Stimulant Buffer (prepared at 5× final concentration in 1× FluxOR™ Chloride-Free Buffer): 7.5 mM Thallium sulfate and 0.75 mM Potassium sulfate (to give a final assay concentration of 3 mM Thallium/0.3 mM Potassium). Store at 4° C. when not in use. If kept sterile, this solution is good for months. Assay Protocol—
The ROMK channel functional thallium flux assay is performed in 384 wells, using the FLIPR-Tetra instrument. HEK-hKir1.1 cells are seeded in Poly-D-Lysine microplates and kept in a 37° C.-10% CO2 incubator overnight. On the day of the experiment, the growth media is replaced with the FluxOR™ reagent loading buffer and incubated, protected from light, at ambient temperature (23-25° C.) for 90 min. The loading buffer is replaced with assay buffer±test compound followed by 30 min incubation at ambient temperature, where the Thallium/Potassium stimulant is added to the microplate.
• 1. Seed HEK-hKir1.1 cells (50 μl at 20,000 cells/well) in 384-well PDL coated Microplates • 2. Allow cells to adhere overnight in humidified 37° C./10% CO2 incubator • 3. Completely remove cell growth media from microplate and replace with 25 μl loading buffer • 4. Incubate Microplate at room temperature, protected form light, for 90 min • 5. Remove loading buffer and replace with 25 μl 1× Assay Buffer±test compound. • 6. Incubate microplate at room temperature, protected form light, for 30 min • 7. […] Excitation=400 nm, Emission=460 & 580 nm. Collect data for 10 min. Data Calculation—
The fluorescence intensity of wells containing 3 μM of a standard control ROMK inhibitor of the present invention is used to define the ROMK-sensitive component of thallium flux. Fluorescence in the presence of test compounds is normalized to control values to provide % fluorescence change.

[2] = target: Kir1.1 (ROMK1) (Homo sapiens (Human), UniProt P48048); experiment: Electrophysiology Assay (whole cell voltage clamp, IonWorks Quattro); assay type: cell-based; settings: Chinese hamster ovary cells stably expressing Kir1.1; block at voltage step to 0 mV, 6 minutes compound incubation; read-out: EP Assay IC50
Source text: as §1
Block of Kir1.1 (ROMK1) currents was examined by whole cell voltage clamp (Hamill et. al. Pfluegers Archives 391:85-100 (1981)) using the IonWorks® Quattro automated electrophysiology platform (Molecular Devices, Sunnyvale, Calif.). Chinese hamster ovary cells stably expressing Kir1.1 channels were maintained in T-75 flasks in cell culture media in a humidified 10% CO2 incubator at 37° C. Prior to an experiment, Kir1.1 expression was induced by overnight incubation with 1 mM sodium butyrate. On the day of the experiment, cells were dissociated with 2.5 ml of Versene™ (Invitrogen 15040-066) for approximately 6 minutes at 37° C. and suspended in 10 ml of bath solution containing (in mM): 150 NaCl, 10 KCl, 2.7 CaCl2, 0.5 MgCl2, 5 HEPES, pH 7.4. After centrifugation, the cell pellet was resuspended in approximately 4.0 ml of bath solution and placed in the IonWorks® instrument. The intracellular solution consisted of (in mM): 80 K gluconate, 40 KCl, 20 KF, 3.2 MgCl2, 3 EGTA, 5 Hepes, pH 7.4. Electrical access to the cytoplasm was achieved by perforation in 0.13 mg/ml amphotericin B for 4 minutes. Amphotericin B (Sigma A-4888) was prepared as a 40 mg/ml solution in DMSO.
Voltage protocols and current recordings were performed using the IonWorks® HT software/hardware system. Currents were sampled at 1 kHz. No correction for liquid junction potentials was used. The test pulse, consisting of a 100 ms step to 0 mV from a holding potential of −70 mV, followed by a 100 ms voltage ramp from −70 mV to +70 mV, was applied before and after a 6 minutes compound incubation period. Test compounds were prepared by diluting DMSO stock solutions into the bath solution at 3× the final concentration and placed in the instrument in 96-well polypropylene plates. Current amplitudes were measured using the IonWorks® software. To assess compound potency, the fractional block during the voltage step to 0 mV was calculated in Microsoft® Excel (Microsoft, Redmond, Calif.), and dose-response curves were fitted with Igor Pro 4.0 (WaveMetrics, Lake Oswego, Oreg.).

Sequence of hROMK (hKir1.1) (P48048 whole entry): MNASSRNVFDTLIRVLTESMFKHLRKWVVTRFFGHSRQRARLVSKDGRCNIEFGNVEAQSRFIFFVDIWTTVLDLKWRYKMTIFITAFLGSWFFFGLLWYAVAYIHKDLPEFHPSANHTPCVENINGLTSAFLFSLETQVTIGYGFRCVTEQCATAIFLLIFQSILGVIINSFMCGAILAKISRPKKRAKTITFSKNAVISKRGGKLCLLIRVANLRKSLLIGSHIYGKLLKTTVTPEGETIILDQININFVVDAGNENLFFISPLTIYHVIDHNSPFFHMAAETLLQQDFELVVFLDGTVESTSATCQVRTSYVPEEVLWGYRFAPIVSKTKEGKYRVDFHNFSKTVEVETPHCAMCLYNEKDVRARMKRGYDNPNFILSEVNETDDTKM
Sequence of Kir1.1 (ROMK1) (P48048 whole entry, species assumed): as the sequence (P48048 whole entry) above

Row | SMILES | IC50 [1] [nM] | IC50 [2] [nM]
1 | Cc1c([C@@H](O)CN2CCC3CN(CC(O)c4ccc(C#N)cn4)CC32)ccc2c1COC2=O (single isomer, unassigned) [Example 7A] | 152 | 47
2 | Cc1c([C@@H](O)CN2CCC3CN(CC(O)c4ccc(C#N)cn4)CC32)ccc2c1COC2=O (single isomer, unassigned) [Example 7B] | 566 | 2400
3 | Cc1c([C@@H](O)CN2CCC3CN(S(=O)(=O)c4ccc(C#N)cc4)CC32)ccc2c1COC2=O (single isomer, unassigned) [Example 8B] | 662 | 
4 | Cc1c([C@@H](O)CN2CCC3(CCCN3C[C@H](O)c3ccc4c(c3C)COC4=O)C2)ccc2c1COC2=O (single isomer, unassigned) [Example 10B] | 76 | 184
5 | Cc1c([C@@H](O)CN2C(C)CC3CN(CC(O)c4ccc(C#N)cn4)CC32)ccc2c1COC2=O (single isomer, unassigned) [Example 11A] | 93 | 
6 | Cc1c([C@@H](O)CN2C(C)CC3CN(CC(O)c4ccc(C#N)cn4)CC32)ccc2c1COC2=O (single isomer, unassigned) [Example 11B] | 91 | 53
7 | Cc1cc(S(=O)(=O)N2CCCC23CCN(C[C@H](O)c2ccc4c(c2C)COC4=O)C3)ccc1-n1cnnn1 (single isomer, unassigned) [Example 18A] | 138 | 79
8 | Cc1cc(S(=O)(=O)N2CCCC23CCN(C[C@H](O)c2ccc4c(c2C)COC4=O)C3)ccc1-n1cnnn1 (single isomer, unassigned) [Example 18B] | 294 | 125
9 | Cc1c([C@@H](O)CN2CC3CN(CC(O)c4ccc(C#N)cn4)C3C2)ccc2c1COC2=O (single isomer, unassigned) [Example 22] | 916 | 
10 | Cc1c([C@@H](O)CN2CC3CN(CC(O)c4ccc(C#N)cn4)C3C2)ccc2c1COC2=O (single isomer, unassigned) [Example 23] | 540 | 1800
11 | Cc1c([C@@H](O)CN2CCCC3(CCN(C[C@H](O)c4ccc5c(c4C)COC5=O)C3)C2)ccc2c1COC2=O (stereo partly drawn) [Example 1, 5,5′-{2,7-Diazaspiro[4.5]decane-2,7-diylbis[(1R)-1-hydroxyethane-2,1-diyl]}bis(4-methyl-2-benzofuran-1(3H)-one)] | 274 | 117
12 | Cc1c([C@@H](O)CN2CC3CCN(C(=O)c4ccc(C#N)cn4)CC3C2)ccc2c1COC2=O (stereo partly drawn) [Example 3, 6-({2-[(2R)-2-Hydroxy-2-(4-methyl-1-oxo-1,3-dihydro-2-benzofuran-5-yl)ethyl]octahydro-5H-pyrrolo[3,4-c]pyridine-5-yl}carbonyl)pyridine-3-carbonitrile] | 865 | 
13 | Cc1c([C@@H](O)CN2CCCC3(CCCN3C[C@H](O)c3ccc4c(c3C)COC4=O)C2)ccc2c1COC2=O (stereo partly drawn) [Example 5, 5,5′-{1,7-Diazaspiro[4.5]decane-1,7-diylbis[(1R)-1-hydroxyethane-2,1-diyl]}bis(4-methyl-2-benzofuran-1(3H)-one)] | 737 | 348
14 | Cc1c([C@@H](O)CN2CCCC3(CCCN(C[C@H](O)c4ccc5c(c4C)COC5=O)C3)C2)ccc2c1COC2=O [Example 6, 5,5′-{2,8-Diazaspiro[5.5]undecane-2,8-diylbis[(1R)-1-hydroxyethane-2,1-diyl]}bis(4-methyl-2-benzofuran-1(3H)-one)] | 359 | 201
15 | N#Cc1ccc(S(=O)(=O)N2CCC3CN(C[C@H](O)c4ccc5c(c4)COC5=O)CC32)cc1 (stereo partly drawn) [Example 9, 4-(5-((R)-2-Hydroxy-2-(1-oxo-1,3-dihydroisobenzofuran-5-yl)ethyl)hexahydropyrrolo[3,4-b]pyrrol-1(2H)-ylsulfonyl)benzonitrile] | 234 | 
16 | Cc1c([C@@H](O)CN2CCC3(CCCN(C(=O)c4ccc(-n5cnnn5)nc4)C3)C2)ccc2c1COC2=O (stereo partly drawn) [Example 14, 5-((1R)-2-(7-(6-(1H-tetrazol-1-yl)nicotinoyl)-2,7-diazaspiro[4.5]decan-2-yl)-1-hydroxyethyl)-4-methylisobenzofuran-1(3H)-one] | 241 | 108
17 | Cc1c([C@@H](O)CN2CC3CCN(C(=O)c4ccc(-n5cnnn5)nc4)CC3C2)ccc2c1COC2=O (stereo partly drawn) [Example 15, 5-((1R)-2-(5-(6-(1H-Tetrazol-1-yl)nicotinoyl)-1H-pyrrolo[3,4-c]_yridine-2(3H,3aH,4H,5H,6H,7H,7aH)-yl)-1-hydroxyethyl)-4-methylisobenzofuran-1(3H)-one] | 103 | 200
18 | Cc1c([C@@H](O)CN2CCC3CN(C(=O)c4ccc(-n5cnnn5)cn4)CC32)ccc2c1COC2=O (stereo partly drawn) [Example 16, 5-((1R)-2-(5-(5-(1H-tetrazol-1-yl)picolinoyl)hexahydropyrrolo[3,4-b]pyrrol-1(2H)-yl)-1-hydroxyethyl)-4-methylisobenzofuran-1(3H)-one] | 602 | 850
19 | Cc1c([C@@H](O)CN2CCC3CN(S(=O)(=O)c4ccc(-n5cnnn5)cc4)CC32)ccc2c1COC2=O (stereo partly drawn) [Example 20, 5-((1R)-2-(5-(4-(1H-Tetrazol-1-yl)phenylsulfonyl)hexahydropyrrolo[3,4-b]pyrrol-1(2H)-yl)-1-hydroxyethyl)-4-methylisobenzofuran-1(3H)-one] | 1050 | 
